Source: patent publication US20060159648A1, “Novel therapeutic method and compositions for topical administration” (priority 2003, published 2006)
Where two headings read alike, the source gives them in different places.

Tests used:
[1] = human pharmacokinetics after oral dosing (literature); format: in vivo, humans; conditions: for Z, target local free (unbound) concentration = peak plasma free drug concentration: peak plasma concentration*(100-PBF)/100
From the text: Z is expressed in units of ng/ml and is the target local free ( i.e. unbound) concentration that is expected to have a therapeutic effect against the skin condition. In the case of PPAR gamma agonists, Z should correspond to the peak plasma free drug concentration generated by dosing these drugs orally to treat effectively Type II diabetes mellitus. The appropriate value of Z may be determined experimentally in vivo by conventional known means using standard protocols.
C is expressed in units of ml/hr and is the rate of clearance of the drug substance. Clearance may be determined experimentally in vivo by conventional known means using standard tests. For example it can be determined from the plasma concentration in response to a defined input of drug using the equation given below: Clearance (ml/hr)=Input rate (ng/hr)/Total plasma concentration (ng/ml)

[2] = cited from earlier work; for clearance: in adults
[3] = cited from earlier work; for plasma bound fraction: value used in the flux equations; for Plasma protein binding: Product Information
[4] = test system: fasting plasma glucose; conditions: type II diabetes patients, cited from earlier work

Compound | Z, target local free (unbound) concentration = peak plasma free drug concentration [1] | Peak plasma concentration ([2]; 8 mg dose) | clearance [2] | plasma bound fraction [3] | time to achieve a reduction of fasting plasma glucose by 2 mmol 1 ([4]; 2 mg b.i.d. dosage regimen) | time to achieve a reduction of fasting plasma glucose by 2 mmol 1 ([4]; 4 mg b.i.d. dosage regimen) | clearance ([1]; human, plasma, oral, in adults, from Clearance/Bioavailability and bioavailability with a meal) | Peak plasma concentration ([2]; 400 mg dose) | Bioavailability ([2]; with a meal) | Clearance/Bioavailability ([2]; with a meal) | Plasma protein binding [3] | Peak plasma concentration ([2]; 30 mg dose)
CN(CCOc1ccc(CC2SC(=O)NC2=O)cc1)c1ccccn1 (stereo not drawn) [rosiglitazone, 5-[4-[2-(N-methyl-N-(2-pyridyl)amino)ethoxy]benzyl]thiazolidine-2,4-dione] | 1.7 ng/mL | about 600 ng/ml | 2780 mL/h | 99.72% | about 8 weeks | about 4 weeks |  |  |  |  |  | 
Cc1c(C)c2c(c(C)c1O)CCC(C)(COc1ccc(CC3SC(=O)NC3=O)cc1)O2 (stereo not drawn) [troglitazone, 5-[[4-[(3,4-dihydro-6-hydroxy-2,5,7,8-tetramethyl-2H-1-benzopyran-2-yl)methoxy]phenyl]methyl]-2,4-thiazolidinedione] | 7.5 ng/mL |  |  | 99.5% |  |  | 425 mL/min | about 1500 ng/ml | ~85% | 500 mL/min | 99% | 
CCc1ccc(CCOc2ccc(CC3SC(=O)NC3=O)cc2)nc1 (stereo not drawn) [pioglitazone, 5-[4-[2-(5-ethyl-2-pyridyl)ethoxy]benzyl]thiazolidine-2,4-dione] | 3.5 ng/mL |  | 2400 mL/h | 99.5% |  |  |  |  |  |  | > 99% | about 700 ng/ml
